Values of other authors, collected in patent publication US6384213B1, “Process for preparing a pure, pharmacopoeial grade amorphous form of cefuroxime axetil” (Ranbaxy Laboratories Limited, priority 1998, dated 2002).

Assays:
[1] = amorphous form essentially free from crystalline material, purity at least 95%
[2] = amorphous form essentially free from crystalline material, purity at least 95%, compared with crystalline form

## CO/N=C(\C(=O)N[C@@H]1C(=O)N2C(C(=O)OC(C)OC(C)=O)=C(COC(N)=O)CS[C@H]12)c1ccco1 (some centres unmarked) [cefuroxime axetil in amorphous form, cefuroxime axetil]
[1]
  chemical stability: adequate chemical stability
[2]
  bioavailability: higher bioavailability than the crystalline form
